Data: ChEMBL document CHEMBL1137864, “End-capping of the modified melanocortin tetrapeptide (p-Cl)Phe-D-Phe-Arg-Trp-NH2 as a route to hMC4R agonists” (Bioorg Med Chem Lett, 2004)
pEC50: −log10 of the molar value.

Assays:
[1] = target: Melanocyte-stimulating hormone receptor (Homo sapiens, UniProt Q01726); assay: Agonistic activity against human Melanocortin 1 receptor; assay type: functional
[2] = target: Melanocortin receptor (M3 and M4) (Homo sapiens) (UniProt P32245+P41968); assay: Ratio of EC50 of Melanocortin 4 receptor to that of Melanocortin 3 receptor; assay type: protein assay
Melanocortin receptor 4 = Melanocortin receptor 4 (Homo sapiens, UniProt P32245); assay: Agonistic activity against human Melanocortin 4 receptor; assay type: functional
Melanocortin receptor 4, sequence (P32245 whole entry): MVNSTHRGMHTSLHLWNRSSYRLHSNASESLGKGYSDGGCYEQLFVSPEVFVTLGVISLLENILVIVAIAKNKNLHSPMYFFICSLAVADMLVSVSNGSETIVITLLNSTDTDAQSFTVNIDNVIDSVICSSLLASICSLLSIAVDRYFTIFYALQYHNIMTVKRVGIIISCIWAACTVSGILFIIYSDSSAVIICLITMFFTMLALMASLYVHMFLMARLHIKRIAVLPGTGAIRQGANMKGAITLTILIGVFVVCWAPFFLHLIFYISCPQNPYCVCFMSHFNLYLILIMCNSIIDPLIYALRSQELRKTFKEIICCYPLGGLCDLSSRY

[3] = target: Melanocortin receptor (M1 and M4) (Homo sapiens) (UniProt P32245+Q01726); assay: Ratio of EC50 of Melanocortin 4 receptor to that of Melanocortin 1 receptor; assay type: protein assay
Melanocortin receptor 3 = Melanocortin receptor 3 (Homo sapiens, UniProt P41968); assay: Agonistic activity against human Melanocortin 3 receptor; assay type: functional
Melanocortin receptor 3, sequence (P41968 whole entry): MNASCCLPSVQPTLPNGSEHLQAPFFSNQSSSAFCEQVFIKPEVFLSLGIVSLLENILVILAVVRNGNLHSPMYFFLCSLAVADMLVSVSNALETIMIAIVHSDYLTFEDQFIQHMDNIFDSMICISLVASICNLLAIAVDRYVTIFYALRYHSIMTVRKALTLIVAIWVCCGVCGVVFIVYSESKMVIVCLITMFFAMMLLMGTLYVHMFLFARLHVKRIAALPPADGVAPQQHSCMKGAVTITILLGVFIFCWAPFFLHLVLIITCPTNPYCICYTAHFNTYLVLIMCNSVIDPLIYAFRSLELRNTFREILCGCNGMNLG

Melanocyte-stimulating hormone receptor, sequence (Q01726 whole entry): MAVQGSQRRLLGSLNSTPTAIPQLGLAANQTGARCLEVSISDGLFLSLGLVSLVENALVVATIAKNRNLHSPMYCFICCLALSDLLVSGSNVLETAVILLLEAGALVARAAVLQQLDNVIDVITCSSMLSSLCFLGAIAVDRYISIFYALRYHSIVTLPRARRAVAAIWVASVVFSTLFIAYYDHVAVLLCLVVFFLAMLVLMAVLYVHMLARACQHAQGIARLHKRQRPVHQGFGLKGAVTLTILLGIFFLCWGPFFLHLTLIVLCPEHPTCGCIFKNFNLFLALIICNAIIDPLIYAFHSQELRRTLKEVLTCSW

SMILES | pEC50 [1] | Ratio [2] | pEC50 (Melanocortin receptor 4) | Ratio [3] | pEC50 (Melanocortin receptor 3)
CNC(=O)N[C@@H](Cc1ccc(Cl)cc1)C(=O)NC(Cc1ccccc1)C(=O)N[C@@H](CCCN=C(N)N)C(=O)N[C@@H](Cc1c[nH]c2ccccc12)C(N)=O (stereo in doubt) | 6.07 | 10 | 8.07 | 100 | 7.06
N=C(N)NCCC[C@H](NC(=O)C(Cc1ccccc1)NC(=O)[C@H](Cc1ccc(Cl)cc1)NC(=O)CNC=O)C(=O)N[C@@H](Cc1c[nH]c2ccccc12)C(N)=O (stereo in doubt) | 6.22 | 54 | 7.85 | 43 | 6.12
N=C(N)NCCC[C@H](NC(=O)C(Cc1ccccc1)NC(=O)[C@H](Cc1ccc(Cl)cc1)NC(=O)COc1ccccc1)C(=O)N[C@@H](Cc1c[nH]c2ccccc12)C(N)=O (stereo in doubt) | 6.08 | 5 | 6.73 | 4 | 6.07
N=C(N)NCCC[C@H](NC(=O)C(Cc1ccccc1)NC(=O)[C@H](Cc1ccc(Cl)cc1)NC(=O)c1ccccn1)C(=O)N[C@@H](Cc1c[nH]c2ccccc12)C(N)=O (stereo in doubt) | 6.02 | 14 | 7.50 | 30 | 6.34
COP(=O)(N[C@@H](Cc1ccc(Cl)cc1)C(=O)NC(Cc1ccccc1)C(=O)N[C@@H](CCCN=C(N)N)C(=O)N[C@@H](Cc1c[nH]c2ccccc12)C(N)=O)OC (stereo in doubt) | 6.11 | 19 | 6.86 | 6 | 5.58
N=C(N)NCCC[C@H](NC(=O)C(Cc1ccccc1)NC(=O)[C@H](Cc1ccc(Cl)cc1)NC(=O)c1cccs1)C(=O)N[C@@H](Cc1c[nH]c2ccccc12)C(N)=O (stereo in doubt) | 6.05 | 34 | 7.73 | 48 | 6.19
N=C(N)NCCC[C@H](NC(=O)C(Cc1ccccc1)NC(=O)[C@H](Cc1ccc(Cl)cc1)NS(=O)(=O)C(F)(F)F)C(=O)N[C@@H](Cc1c[nH]c2ccccc12)C(N)=O (stereo in doubt) | 5.67 | 0.4 | 5.34 | 0.5 | 5.78
N=C(N)NCCC[C@H](NC(=O)C(Cc1ccccc1)NC(=O)[C@H](Cc1ccc(Cl)cc1)NC(=O)c1cccnc1)C(=O)N[C@@H](Cc1c[nH]c2ccccc12)C(N)=O (stereo in doubt) | 6.24 | 15 | 7.68 | 28 | 6.50
CCCC(=O)N[C@@H](Cc1ccc(Cl)cc1)C(=O)NC(Cc1ccccc1)C(=O)N[C@@H](CCCN=C(N)N)C(=O)N[C@@H](Cc1c[nH]c2ccccc12)C(N)=O (stereo in doubt) | 6.10 | 8 | 6.97 | 8 | 6.08
N=C(N)NCCC[C@H](NC(=O)C(Cc1ccccc1)NC(=O)[C@H](Cc1ccc(Cl)cc1)NC(=O)CC(N)=O)C(=O)N[C@@H](Cc1c[nH]c2ccccc12)C(N)=O (stereo in doubt) | 6.22 | 70 | 7.84 | 41 | 5.99
COP(=S)(N[C@@H](Cc1ccc(Cl)cc1)C(=O)NC(Cc1ccccc1)C(=O)N[C@@H](CCCN=C(N)N)C(=O)N[C@@H](Cc1c[nH]c2ccccc12)C(N)=O)OC (stereo in doubt) | 5.72 | 4 | 6.35 | 4 | 5.79
N=C(N)NCCC[C@H](NC(=O)C(Cc1ccccc1)NC(=O)[C@H](Cc1ccc(Cl)cc1)NC(=O)c1ccccc1)C(=O)N[C@@H](Cc1c[nH]c2ccccc12)C(N)=O (stereo in doubt) | 6.15 | 4 | 6.87 | 5 | 6.25
N=C(N)NCCC[C@H](NC(=O)C(Cc1ccccc1)NC(=O)[C@H](Cc1ccc(Cl)cc1)NC(=O)CC(F)(F)F)C(=O)N[C@@H](Cc1c[nH]c2ccccc12)C(N)=O (stereo in doubt) | 5.92 |  | 6.82 | 8 | 6.05
CN(C)C(=O)N[C@@H](Cc1ccc(Cl)cc1)C(=O)NC(Cc1ccccc1)C(=O)N[C@@H](CCCN=C(N)N)C(=O)N[C@@H](Cc1c[nH]c2ccccc12)C(N)=O (stereo in doubt) | 5.67 | 4 | 7.38 | 51 | 6.76
N=C(N)NCCC[C@H](NC(=O)C(Cc1ccccc1)NC(=O)[C@H](Cc1ccc(Cl)cc1)NC(=O)c1ccsc1)C(=O)N[C@@H](Cc1c[nH]c2ccccc12)C(N)=O (stereo in doubt) | 6.17 | 25 | 7.57 | 25 | 6.17

More lines, now with the values ahead:

pEC50 [1] | Ratio [2] | pEC50 (Melanocortin receptor 4) | Ratio [3] | pEC50 (Melanocortin receptor 3) | SMILES
7.89 | 0.7 | 7.23 | 0.1 | 6.77 | CC(=O)N[C@@H](Cc1c[nH]cn1)C(=O)NC(Cc1ccccc1)C(=O)NC(Cc1ccccc1)C(=O)N[C@@H](CCCN=C(N)N)C(=O)N[C@@H](Cc1c[nH]c2ccccc12)C(N)=O (stereo in doubt)
6.30 | 14 | 7.16 | 7 | 6.02 | COCC(=O)N[C@@H](Cc1ccc(Cl)cc1)C(=O)NC(Cc1ccccc1)C(=O)N[C@@H](CCCN=C(N)N)C(=O)N[C@@H](Cc1c[nH]c2ccccc12)C(N)=O (stereo in doubt)
6.27 | 33 | 7.52 | 18 | 6.00 | N=C(N)NCCC[C@H](NC(=O)C(Cc1ccccc1)NC(=O)[C@H](Cc1ccc(Cl)cc1)NC(=O)c1ccncc1)C(=O)N[C@@H](Cc1c[nH]c2ccccc12)C(N)=O (stereo in doubt)
6.26 | 8 | 6.77 | 3 | 5.87 | N=C(N)NCCC[C@H](NC(=O)C(Cc1ccccc1)NC(=O)[C@H](Cc1ccc(Cl)cc1)NC(=O)c1c(F)c(F)c(F)c(F)c1F)C(=O)N[C@@H](Cc1c[nH]c2ccccc12)C(N)=O (stereo in doubt)
6.68 | 88 | 7.46 | 6 | 5.51 | CCOC(=O)N[C@@H](Cc1ccc(Cl)cc1)C(=O)NC(Cc1ccccc1)C(=O)N[C@@H](CCCN=C(N)N)C(=O)N[C@@H](Cc1c[nH]c2ccccc12)C(N)=O (stereo in doubt)
6.25 | 4 | 6.91 | 5 | 6.30 | CC(C)C(=O)N[C@@H](Cc1ccc(Cl)cc1)C(=O)NC(Cc1ccccc1)C(=O)N[C@@H](CCCN=C(N)N)C(=O)N[C@@H](Cc1c[nH]c2ccccc12)C(N)=O (stereo in doubt)
6.95 | 3 | 7.09 | 1 | 6.68 | N=C(N)NCCC[C@H](NC(=O)C(Cc1ccccc1)NC(=O)[C@H](Cc1ccc(Cl)cc1)NC(=O)CCCc1ccccc1)C(=O)N[C@@H](Cc1c[nH]c2ccccc12)C(N)=O (stereo in doubt)
6.36 | 3 | 6.81 | 3 | 6.34 | CCCCC(=O)N[C@@H](Cc1ccc(Cl)cc1)C(=O)NC(Cc1ccccc1)C(=O)N[C@@H](CCCN=C(N)N)C(=O)N[C@@H](Cc1c[nH]c2ccccc12)C(N)=O (stereo in doubt)
7.64 | 0.7 | 7.24 | 0.4 | 7.39 | N=C(N)NCCC[C@H](NC(=O)C(Cc1ccccc1)NC(=O)[C@H](Cc1ccc(Cl)cc1)NC(=O)CCCC(=O)c1ccccc1)C(=O)N[C@@H](Cc1c[nH]c2ccccc12)C(N)=O (stereo in doubt)
6.27 | 16 | 6.38 | 1 | 5.17 | CS(=O)(=O)N[C@@H](Cc1ccc(Cl)cc1)C(=O)NC(Cc1ccccc1)C(=O)N[C@@H](CCCN=C(N)N)C(=O)N[C@@H](Cc1c[nH]c2ccccc12)C(N)=O (stereo in doubt)
6.27 | 12 | 7.41 | 14 | 6.33 | N=C(N)NCCC[C@H](NC(=O)C(Cc1ccccc1)NC(=O)[C@H](Cc1ccc(Cl)cc1)NC(=O)C1CC1)C(=O)N[C@@H](Cc1c[nH]c2ccccc12)C(N)=O (stereo in doubt)
6.94 | 4 | 7.30 | 2 | 6.69 | N=C(N)NCCC[C@H](NC(=O)C(Cc1ccccc1)NC(=O)[C@H](Cc1ccc(Cl)cc1)NC(=O)CCC(=O)c1ccc(F)cc1)C(=O)N[C@@H](Cc1c[nH]c2ccccc12)C(N)=O (stereo in doubt)
6.42 | 6 | 7.63 | 16 | 6.84 | CC(C)(C)C(=O)N[C@@H](Cc1ccc(Cl)cc1)C(=O)NC(Cc1ccccc1)C(=O)N[C@@H](CCCN=C(N)N)C(=O)N[C@@H](Cc1c[nH]c2ccccc12)C(N)=O (stereo in doubt)
6.42 | 26 | 7.41 | 10 | 5.99 | CSCC(=O)N[C@@H](Cc1ccc(Cl)cc1)C(=O)NC(Cc1ccccc1)C(=O)N[C@@H](CCCN=C(N)N)C(=O)N[C@@H](Cc1c[nH]c2ccccc12)C(N)=O (stereo in doubt)
10.30 |  | 8.30 | 0.01 | 8.52 | N=C(N)NCCC[C@H](NC(=O)C(Cc1ccccc1)NC(=O)C(Cc1ccccc1)NC(=O)[C@H](Cc1c[nH]cn1)NC(=O)CCCC(=O)c1ccccc1)C(=O)N[C@@H](Cc1c[nH]c2ccccc12)C(N)=O (stereo in doubt)
7.39 | 1.5 | 7.02 | 0.4 | 6.85 | N=C(N)NCCC[C@H](NC(=O)C(Cc1ccccc1)NC(=O)[C@H](Cc1ccc(Cl)cc1)NC(=O)CCC(=O)c1cc(F)cc(F)c1)C(=O)N[C@@H](Cc1c[nH]c2ccccc12)C(N)=O (stereo in doubt)
